Test results as given in patent publication US20260200947A1, “FUSED CYCLIC COMPOUNDS AND USE THEREOF” (Jacobio Pharmaceuticals Co., Ltd., priority 2022, published 2026).
pIC50: −log10 of the molar value. Like-named read-outs stand apart in the source and are kept apart here.

How the values were obtained:
[1] = Mouse pharmacokinetic study; format: in vivo; conditions: Balb/c mouse (female)
Experimental: The purpose of this study was to evaluate the pharmacokinetic properties of compounds in Balb/c mouse (female) following single dose administration. Six mice were needed for each compound and the six mice were divided into two groups (n=3/group), group A and group B. Mice in group A were treated with a single 3 mg/kg dose of compound (iv). Mice in group B were treated with a single 10 mg/kg dose of compound (po). Foreach mouse in group A, blood samples were collected at the time point of 0.083 h 0.5 h, 1 h, 2 h, 4 h, 8 h and 24 h post-dose. For each mouse in group B, blood samples were collected at the time point of 0.25 h, 0.5 h, 1 h, 2 h, 4 h, 8 h and 24 h post-dose. Blood samples were placed on ice until centrifugation to obtain plasma samples. The plasma samples were stored at −80° C. until analysis. The concentration of compound in plasma samples was determined using a LC-MS/MS method.

GDP-KRAS G12V [2] = target: T1, GDP-KRAS G12V (Homo sapiens, UniProt P01116, G12V); experiment: SOS1 catalyzed nucleotide exchange assay, GDP-KRAS G12V; conditions: read-out: Biochemical assays, IC50, KRAS G12V GDP, GDP form K-Ras G12V, TR-FRET
GDP-KRAS G12D [3] = target: T2, GDP-KRAS G12D (Homo sapiens, UniProt P01116, G12D); experiment: SOS1 catalyzed nucleotide exchange assay, GDP-KRAS G12D; conditions: read-out: Biochemical assays, IC50, KRAS G12D GDP, GDP form K-Ras G12D, TR-FRET
[4] = test system: AsPC-1 cells (K-Ras G12D)
Experimental: (§1) Each of cells in culture medium was plated in TC-treated 96-well plates at a density indicated in Table 4 and incubated in a cell incubator overnight. The next day, each of compounds was diluted in culture medium and added to the plates. After 6 days incubation in cell incubator, the cell viability was detected by CellTiter-Glo® Cell Viability Assay kit (Promega).

GppNp-KRAS G12D [5] = target: T3, GppNp-KRAS G12D (Homo sapiens, UniProt P01116, G12D); experiment: GTP-K-Ras and cRAF interaction assay, GppNp-KRAS G12D; conditions: read-out: Biochemical assays, IC50, KRAS G12D GppNp; GppNp-loaded K-Ras G12D, cRAF RBD interaction, HTRF
GppNp-KRAS G12V [6] = target: T4, GppNp-KRAS G12V (Homo sapiens, UniProt P01116, G12V); experiment: GTP-K-Ras and cRAF interaction assay, GppNp-KRAS G12V; conditions: read-out: Biochemical assays, IC50, KRAS G12V GppNp; GppNp-loaded K-Ras G12V, cRAF RBD interaction, HTRF
[7] = test system: Capan-2 cells (K-Ras G12V)
Experimental: (§2) Each of cells in culture medium was seeded in 96-well plates at density indicated in Table 4 and put in a cell incubator to incubate overnight. The next day, the culture medium was removed and the compound diluted in assay medium was added in each well. […] 10 μL of cell lysates from the 96-well plates were transferred to a 384-well plate (Greiner) containing 2.5 μL/well HTRF® pre-mixed antibodies (Cisbio 64AERPEH). The plate was incubated 4 hours at 25° C. and read HTRF signals on Tecan Spark multimode microplate reader. The data were analyzed using a 4-parameter logistic model to calculate IC50 values.

SW620 cells (K-Ras G12V) [8] = test system: SW620 cells (K-Ras G12V)
Experimental: as §1

AGS cells (K-Ras G12D) [9] = test system: AGS cells (K-Ras G12D)
Experimental: as §1

GppNp-KRAS G12D [10] = target: T3, GppNp-KRAS G12D; experiment: biochemical
GDP-KRAS G12D [11] = target: T2, GDP-KRAS G12D; experiment: biochemical
AGS cells (K-Ras G12D) [12] = test system: AGS cells (K-Ras G12D); remark: listed apart in the source
Experimental: as §2

GppNp-KRAS G12V [13] = target: T4, GppNp-KRAS G12V; experiment: biochemical
SW620 cells (K-Ras G12V) [14] = experiment: Phospho-ERK1/2(THR202/TYR204) HTRF assay, SW620; format: cell-based; conditions: Homo sapiens, SW-620, 2 hours incubation, read-out: pERK, IC50, SW620
Experimental: as §2

GDP-KRAS G12V [15] = target: T1, GDP-KRAS G12V; experiment: biochemical

T1 sequence (P01116 1-169 isoform P01116-2 G12V): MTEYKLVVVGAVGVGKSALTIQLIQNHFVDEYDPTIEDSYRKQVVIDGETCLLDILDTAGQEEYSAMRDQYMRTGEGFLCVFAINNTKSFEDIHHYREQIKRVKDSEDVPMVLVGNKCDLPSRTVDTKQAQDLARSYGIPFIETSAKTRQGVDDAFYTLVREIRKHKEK
T4 sequence (P01116 1-169 isoform P01116-2 G12V): as above
T3 sequence (P01116 1-169 isoform P01116-2 G12D): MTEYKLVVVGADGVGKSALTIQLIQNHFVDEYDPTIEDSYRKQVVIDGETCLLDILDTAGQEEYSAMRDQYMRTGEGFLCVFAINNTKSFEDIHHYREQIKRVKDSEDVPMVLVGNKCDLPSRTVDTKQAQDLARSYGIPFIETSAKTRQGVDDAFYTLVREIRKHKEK
T2 sequence (P01116 1-169 isoform P01116-2 G12D): as above

Structure (SMILES)	AUC0-24 h ([1]; 3 mg/kg, iv, plasma) [ng·h/mL]	Cl_obs ([1]; 3 mg/kg, iv, plasma) [mL/min/kg]	F ([1]; 10 mg/kg po vs 3 mg/kg iv) [%]	AUC0-24 h ([1]; 10 mg/kg, po, plasma) [ng·h/mL]	Cmax ([1]; 10 mg/kg, po, plasma) [ng/mL]	pIC50 (GDP-KRAS G12V [2])	pIC50 (GDP-KRAS G12D [3])	pIC50 [4]	pIC50 (GppNp-KRAS G12D [5])	pIC50 (GppNp-KRAS G12V [6])	pIC50 [7]	pIC50 (SW620 cells (K-Ras G12V) [8])	pIC50 (AGS cells (K-Ras G12D) [9])	pIC50 (GppNp-KRAS G12D [10])	pIC50 (GDP-KRAS G12D [11])	pIC50 (AGS cells (K-Ras G12D) [12])	pIC50 (GppNp-KRAS G12V [13])	pIC50 (SW620 cells (K-Ras G12V) [14])	pIC50 (GDP-KRAS G12V [15])
N#Cc1c(N)sc2c(F)ccc(-c3c(Cl)c4c5c(nc(OCC67CCCN6CC(F)C7)nc5c3F)N3CCCOCC3CO4)c12 (single isomer, unassigned) [Compound 66B]	8951	5.77	10.8	3217	1175	9.03	9.01	8.23	8.39	8.06	8.71	8.65	–	–	–	–	–	–	–
CSc1cccc2cc(O)cc(-c3nc4c5c(nc(OC[C@@]67CCCN6C[C@H](F)C7)nc5c3F)N3CCCOC[C@H]3N4C)c12 [Compound 20]	–	–	–	–	–	–	–	6.96	–	–	7.99	7.61	7.66	–	–	–	–	–	–
[2H]C([2H])([2H])N1c2nc(-c3cc(N)cc4ccc(F)c(C#C)c34)c(F)c3nc(OC[C@@]45CCCN4C[C@H](F)C5)nc(c23)N2CCCOC[C@H]21 [Compound 48]	–	–	–	–	–	–	–	7.58	–	–	8.78	8.59	8.46	7.45	9.12	8.45	7.26	8.43	9.23
C#Cc1c(F)ccc2cc(N)cc(-c3nc4c5c(nc(OC[C@@]67CCCN6C[C@H](F)C7)nc5c3F)N3CCCOCC3N4CCC(F)(F)F)c12 (some centres unmarked) [Compound 104]	–	–	–	–	–	–	–	–	–	–	–	–	–	< 6.00	8.04	6.31	< 6.00	–	7.75
C#Cc1c(F)ccc2cc(N)cc(-c3nc4c5c(nc(OC[C@@]67CCCN6C[C@H](F)C7)nc5c3F)N3CCC=C[C@H](F)[C@H]3N4C)c12 [Compound 108A]	–	–	–	–	–	8.53	8.48	7.20	6.97	6.67	8.06	7.80	–	–	–	–	–	–	–
C#Cc1c(F)ccc2cc(N)cc(-c3nc4c5c(nc(OC[C@@]67CCCN6C[C@H](F)C7)nc5c3F)N3CCCOCC3N4)c12 (some centres unmarked) [Compound 113]	–	–	–	–	–	–	–	6.23	–	–	–	7.34	7.45	6.21	8.34	7.47	6.29	7.67	8.42
C#Cc1c(F)ccc2cc(N)cc(-c3nc4c5c(nc(OC[C@@]67CCCN6C[C@H](F)C7)nc5c3F)N3[C@H]5COC[C@H]5COC[C@H]3N4C)c12 [Compound 123D]	–	–	–	–	–	–	–	–	–	–	8.68	–	–	–	–	8.66	–	–	–
C#Cc1c(F)ccc2cc(N)cc(-c3nc4c5c(nc(OCC67CC(=C)CN6CC(OC)C7)nc5c3F)N3CCCOCC3N4C)c12 (centres unmarked) [Compound 169]	–	–	–	–	–	8.48	8.78	7.03	6.79	6.61	9.11	7.82	–	–	–	–	–	–	–
